In PubChem BioAssay (NCI):
Several values for one entry are separate records, joined by “and”; a condition that tells them apart may be missing. Equal values may be shown once.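 Cells were grown in 96-well plates and exposed to each compound for 48 hours at five concentrations; endpoints were interpolated linearly between bracketing concentrations, or set to the highest concentration if not reached. At the GI50, growth is halved. TGI denotes the concentration required for complete inhibition of growth.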

What was measured:
Test in all cases: DTP human tumour cell line panel, 48 h
[1] = system: MOLT-4 leukemia
[2] = system: M14 melanoma
[3] = system: MALME-3M melanoma
[4] = system: SK-OV-3 ovarian
[5] = system: HOP-92 NSCLC
[6] = system: TK-10 renal
[7] = system: HCT-15 colon
[8] = system: MCF7 breast
[9] = system: T-47D breast
[10] = system: BT-549 breast

Structure (SMILES) | TGI [1] [µM] | TGI [2] [µM] | TGI [3] [µM] | TGI [4] [µM] | TGI [5] [µM] | TGI [6] [µM] | GI50 [7] [µM] | TGI [7] [µM] | GI50 [2] [µM] | GI50 [3] [µM] | GI50 [4] [µM] | GI50 [5] | GI50 [6] [µM] | GI50 [8] [µM] | TGI [8] [µM] | GI50 [9] [µM] | TGI [9] [µM] | GI50 [10] [µM] | TGI [10] [µM] | GI50 [1] [µM]
CC(C)(C)OC(=O)N1C2CCCC23O[C@@H]1c1cc2c(cc1C3=O)OCO2 (stereo partly drawn) | > 100 | > 100 | > 100 | 94 | > 100 | > 100 | – | – | – | – | – | – | – | – | – | – | – | – | – | –
Cc1ccc2[c](c1)[Sn]([c]1ccccc1)([c]1ccccc1)[c]1cc(C)ccc1N2C | – | > 100 | 90.7 | > 100 | > 100 | > 100 | 36.9 | > 100 | 80.5 | 31.8 | > 100 | 5.58 µM and 15.7 µM | > 100 | – | – | – | – | – | – | –
COc1cc(C(=O)O[C@H](C(N)=O)[C@]2(C)CO2)c2cccc(C)c2c1 | – | 4.84 | 0.646 | 7.99 | 2.28 | – | 0.282 | 2.82 | 2.13 | 0.13 | 1.45 | 0.654 µM | < 0.0406 | < 0.0367 | > 100 | 1.11 | 8.1 | < 0.0418 | 0.655 | –
O=C1c2ccccc2C(=O)N1C/C=N/NS(=O)(=O)c1ccc(Br)cc1 | > 100 | > 100 | > 100 | > 100 | > 100 | > 100 | – | > 100 | – | – | – | – | – | – | – | – | – | – | – | –
CC1COS(=O)O1 (stereo not drawn) | > 100 | > 100 | > 100 | > 100 | > 100 | > 100 | – | > 100 | – | – | – | – | – | – | – | – | – | – | – | –
O=C1C=CC(=CC=C2C=CN(CCCCCCCCCCC(=O)NCCCCCCCCCCCC(=O)O)C=C2)C=C1 | > 100 | > 100 | > 100 | > 100 | > 100 | > 100 | – | > 100 | – | – | – | – | – | – | – | – | – | – | – | –
COc1cc(/C=C/C(=O)C(C(=O)/C=C/c2ccc(OC(=O)CCNC34CC5CC(CC(C5)C3)C4)c(OC)c2)C(=O)CCNC23CC4CC(CC(C4)C2)C3)ccc1OC(=O)CCNC12CC3CC(CC(C3)C1)C2 (stereo not drawn) | – | 13.9 | 9.92 | 36.3 | 31.4 | 18.7 | 3.21 | 7.51 | 3.51 | 2.44 | 5.44 | 4.75 µM | 3.77 | 1.97 | 6.28 | 3.69 | 28.9 | 2.5 | 5.77 | –
NC(=S)N/N=C1\CCCC\C1=C/c1ccccc1 | 84.4 | > 100 | > 100 | > 100 | > 100 | > 100 | – | > 100 | – | – | – | – | – | – | – | – | – | – | – | –
C=C1C(=O)OC2C1CC(OC(C)=O)/C(C)=C/CCC1(C)OC21 (stereo not drawn) | > 100 | > 100 | > 100 | > 100 | > 100 | – | – | > 100 | – | – | – | – | – | – | > 100 | – | > 100 | – | > 100 | –
C[Si](C)(C)CN1C(=O)c2ccccc2C1(O)c1ccccc1 (stereo not drawn) | > 100 | > 100 | > 100 | – | 97.9 | > 100 | – | > 100 | – | – | – | – | – | – | – | – | – | – | – | –
Cc1ccc(C)c(N2C(=O)C(=O)C(c3nc4ccccc4o3)/C(=N\NC(=O)c3ccccc3O)C2=O)c1 (stereo not drawn) | 52.6 | > 100 | > 100 | > 100 | > 100 | > 100 | – | > 100 | – | – | – | – | – | – | – | – | – | – | – | –
Cc1ccc(NC(=O)C(=O)C2C(=O)NC(=O)NC2=O)cc1C | > 100 | > 100 | > 100 | > 100 | > 100 | > 100 | – | > 100 | – | – | – | – | – | – | – | – | – | – | – | –
C1=NC(N(Cc2ccccc2)Cc2ccccc2)N(Cc2ccccc2)N1 (stereo not drawn) | > 100 | 23.1 | 25.8 | 67.2 | 25.6 | 86.4 | – | 34.4 | – | – | – | – | – | – | – | – | – | – | – | –
CSc1ccc2c(cc1=O)[C@@H](NC(=O)c1cc(O)c(O)c(O)c1)CCc1cc(O)c(O)c(O)c1-2 | 45.6 | 36.6 | 93.3 | > 100 | – | > 100 | – | 41.4 | – | – | – | – | – | – | – | – | – | – | – | –
CCCCCCCCCCCCCCCCCCC1=C(O)C(=O)C=C(OC)C1=O | > 100 | > 100 | > 100 | > 100 | > 100 | > 100 | – | 97.5 | – | – | – | – | – | – | – | – | – | – | – | –
Cc1ccc2c(c1-c1ccccc1)C(=O)OC2 | > 100 | > 100 | > 100 | > 100 | – | > 100 | – | > 100 | – | – | – | – | – | – | – | – | – | – | – | –
O=C1/C(=C/N2N=C(c3ccc4ccccc4c3)CC2c2ccccc2O)SC(=S)N1c1cccnc1 (stereo not drawn) | > 100 | > 100 | > 100 | > 100 | > 100 | > 100 | 0.428 | > 100 | 0.84 | 5.2 | 5.95 | 5.2 µM | 1.84 | 0.371 | > 100 | 3.8 | > 100 | – | – | 2.46
NCCCOc1cc(Cl)ccc1NC(=O)c1cc2ccccc2cc1OCCCN | 3.25 | – | 3.59 | 2.72 | 2.85 | 3.38 | 1.5 | 3.2 | – | 1.65 | 1.4 | 1.32 µM | 1.73 | 1.62 | 3.07 | 1.51 | 3.2 | – | – | 1.51
COc1ccc(-c2cc(-c3ccc(Nc4ccnc5cc(Cl)ccc45)cc3)nc(N3CCOCC3)n2)cc1 | – | > 100 | – | > 100 | 49.4 | – | – | – | 2.81 | – | 34.8 | 4.83 µM | – | – | – | – | – | 2.73 | > 100 | –
N#Cc1c(-c2ccco2)cc(-c2ccc(N)cc2)[nH]c1=O | > 100 | > 100 | > 100 | > 100 | > 100 | > 100 | – | > 100 | – | – | – | – | – | – | – | – | – | – | – | –
COc1cc(OC)c2sc(-c3ccc(-n4cncc4-c4cc(OC)c(OC)c(OC)c4)cc3)nc2c1 | > 100 | > 100 | > 100 | > 100 | – | > 100 | 5.48 | > 100 | 7.91 | 3.73 | > 100 | – | 9.4 | 3.88 | > 100 | 3.35 | > 100 | 5.23 | > 100 | 4.24
